Results on 17 compounds are retold here after patent US20240101576A1, “HETEROCYCLIC INHIBITORS OF EGFR AND/OR HER2, FOR USE IN THE TREATMENT OF CANCER” (Scorpion Therapeutics, Inc., priority 2020, published 2024).

Structures are written as SMILES. Some results are limits rather than exact numbers.

Common to all, as to assay type: cell-based
In assay [1] the target is T1, EGFR WT (Ba/F3 cells) (Homo sapiens, UniProt P00533).
T1 construct: expressed in transfected cells; host or cells: Ba/F3 (murine pro-B cells), retroviral transduction, puromycin selection, maintained with EGF
T1 sequence (P00533 25-1210): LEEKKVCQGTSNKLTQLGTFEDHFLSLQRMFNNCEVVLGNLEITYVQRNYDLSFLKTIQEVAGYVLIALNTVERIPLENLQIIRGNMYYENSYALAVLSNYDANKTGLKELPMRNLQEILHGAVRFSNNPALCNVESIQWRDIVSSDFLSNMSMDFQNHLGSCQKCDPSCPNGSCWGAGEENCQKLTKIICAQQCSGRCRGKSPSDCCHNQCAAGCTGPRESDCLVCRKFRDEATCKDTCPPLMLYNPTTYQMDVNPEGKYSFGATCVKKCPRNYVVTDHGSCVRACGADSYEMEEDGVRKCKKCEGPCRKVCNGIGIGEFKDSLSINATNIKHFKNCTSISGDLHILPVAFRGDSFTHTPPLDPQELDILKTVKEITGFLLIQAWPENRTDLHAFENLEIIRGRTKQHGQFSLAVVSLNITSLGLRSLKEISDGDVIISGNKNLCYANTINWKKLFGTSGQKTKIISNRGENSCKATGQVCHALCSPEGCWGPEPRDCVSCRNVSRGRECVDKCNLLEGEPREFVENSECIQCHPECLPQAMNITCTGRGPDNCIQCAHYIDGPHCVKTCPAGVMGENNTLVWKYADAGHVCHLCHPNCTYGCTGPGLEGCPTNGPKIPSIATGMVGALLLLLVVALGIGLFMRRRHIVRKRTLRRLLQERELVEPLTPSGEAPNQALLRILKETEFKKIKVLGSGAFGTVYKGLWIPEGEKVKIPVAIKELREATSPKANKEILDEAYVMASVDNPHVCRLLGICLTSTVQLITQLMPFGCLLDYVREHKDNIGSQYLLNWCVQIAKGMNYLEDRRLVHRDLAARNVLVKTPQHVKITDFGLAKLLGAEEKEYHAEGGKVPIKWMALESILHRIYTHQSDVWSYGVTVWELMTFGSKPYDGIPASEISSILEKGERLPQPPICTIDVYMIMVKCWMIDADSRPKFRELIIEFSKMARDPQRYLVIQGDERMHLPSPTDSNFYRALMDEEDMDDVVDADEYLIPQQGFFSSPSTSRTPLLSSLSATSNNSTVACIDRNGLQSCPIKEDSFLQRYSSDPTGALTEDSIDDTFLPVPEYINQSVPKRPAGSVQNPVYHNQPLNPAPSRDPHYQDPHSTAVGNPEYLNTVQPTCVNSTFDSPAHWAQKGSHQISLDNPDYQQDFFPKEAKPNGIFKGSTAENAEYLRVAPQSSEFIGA
The assay is described as follows: Inhibitor activity on EGFR-dependent cell growth (CellTiter-Glo, 72 h), Ba/F3 EGFR WT. The conditions noted are these: read-out: BaF3 WT IC50. The method in brief:
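This growth assay used Ba/F3 cells that depend on wild-type EGFR and are kept in EGF without IL3. Compounds were made up as 10 mM DMSO stocks and diluted 3-fold over 10 points. 120 nL went onto 600 cells/well. After 72 hours, 40 μL CellTiter-Glo was added and luminescence read on EnVision after 30 min.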

In assay [2] the target is T2, EGFR exon 20 NPG Ins D770_N771 (Ba/F3 cells) (Homo sapiens, UniProt P00533, INS770NPG).
T2 construct: expressed in transfected cells; host or cells: Ba/F3 (murine pro-B cells), retroviral transduction, puromycin selection, IL3-independent pool
The assay can be described thus: Inhibitor activity on EGFR-dependent cell growth (CellTiter-Glo, 72 h), Ba/F3 EGFR exon 20 NPG Ins. The conditions noted are these: read-out: BaF3 NPG IC50. The method in brief: (§1)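 IC50s derive from a sigmoidal dose–response fit of CellTiter-Glo signal. The signal was normalised between […]-treated cells and cell-free medium. Ba/F3 mutant-EGFR cells, seeded at 400–800/well depending on the line, had 72 h of exposure to a 10-point, 3-fold compound series.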

Assay [3] has as its target T3, EGFR exon 20 ASV Ins V769_D770 (Ba/F3 cells) (Homo sapiens, UniProt P00533, INS769ASV).
T3 construct: expressed in transfected cells; host or cells: Ba/F3 (murine pro-B cells), retroviral transduction, puromycin selection, IL3-independent pool
The assay is described as follows: Inhibitor activity on EGFR-dependent cell growth (CellTiter-Glo, 72 h), Ba/F3 EGFR exon 20 ASV Ins. The conditions noted are these: read-out: BaF3 ASV IC50. In short, it runs like this:
as §1

Assay [4] addresses T4, EGFR exon 20 SVD Ins D770_N771 (Ba/F3 cells) (Homo sapiens, UniProt P00533, INS770SVD).
T4 construct: expressed in transfected cells; host or cells: Ba/F3 (murine pro-B cells), retroviral transduction, puromycin selection, IL3-independent pool
The assay can be described thus: Inhibitor activity on EGFR-dependent cell growth (CellTiter-Glo, 72 h), Ba/F3 EGFR exon 20 SVD Ins. Particulars: read-out: BaF3 SVD IC50. The method in brief: as §1

Assay [5] has as its target T5, EGFR exon 20 FQEA Ins A763_V764 (Ba/F3 cells) (Homo sapiens, UniProt P00533, INS763FQEA).
T5 construct: expressed in transfected cells; host or cells: Ba/F3 (murine pro-B cells), retroviral transduction, puromycin selection, IL3-independent pool
The assay can be described thus: Inhibitor activity on EGFR-dependent cell growth (CellTiter-Glo, 72 h), Ba/F3 EGFR exon 20 FQEA Ins. Particulars: read-out: BaF3 FQEA IC50. The method in brief:
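For each mutant line, growth depends on EGFR signalling in the absence of IL3. Density per well: 400 for L858R, 600 for the C797S double mutant, 800 for exon 19del and FQEA. Ten threefold dilutions were applied for 72 h. %Inhibition = 100×(DMSO − sample)/(DMSO − medium blank).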

Assay [6] addresses T3, EGFR exon 20 ASV Ins V769_D770 (Ba/F3 cells). The assay is described as follows: Inhibitor activity on EGFR phosphorylation (pEGFR AlphaLISA, 2 h), Ba/F3 EGFR exon 20 ASV Ins. The conditions noted are these: EGFR phosphorylation, AlphaLISA, 2 hours; read-out: ASV IC50 (pEGFR). The method in brief:
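IL3-independent Ba/F3 cells transduced with mutant EGFR (50K/well) or CUTO14 cells (12.5K/well) were treated 2 h with 10-point, 3-fold compound dilutions. Phospho-EGFR in lysates was measured by AlphaLISA to derive IC50.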

T4 sequence (P00533 with tags, fused parts or gaps INS770SVD): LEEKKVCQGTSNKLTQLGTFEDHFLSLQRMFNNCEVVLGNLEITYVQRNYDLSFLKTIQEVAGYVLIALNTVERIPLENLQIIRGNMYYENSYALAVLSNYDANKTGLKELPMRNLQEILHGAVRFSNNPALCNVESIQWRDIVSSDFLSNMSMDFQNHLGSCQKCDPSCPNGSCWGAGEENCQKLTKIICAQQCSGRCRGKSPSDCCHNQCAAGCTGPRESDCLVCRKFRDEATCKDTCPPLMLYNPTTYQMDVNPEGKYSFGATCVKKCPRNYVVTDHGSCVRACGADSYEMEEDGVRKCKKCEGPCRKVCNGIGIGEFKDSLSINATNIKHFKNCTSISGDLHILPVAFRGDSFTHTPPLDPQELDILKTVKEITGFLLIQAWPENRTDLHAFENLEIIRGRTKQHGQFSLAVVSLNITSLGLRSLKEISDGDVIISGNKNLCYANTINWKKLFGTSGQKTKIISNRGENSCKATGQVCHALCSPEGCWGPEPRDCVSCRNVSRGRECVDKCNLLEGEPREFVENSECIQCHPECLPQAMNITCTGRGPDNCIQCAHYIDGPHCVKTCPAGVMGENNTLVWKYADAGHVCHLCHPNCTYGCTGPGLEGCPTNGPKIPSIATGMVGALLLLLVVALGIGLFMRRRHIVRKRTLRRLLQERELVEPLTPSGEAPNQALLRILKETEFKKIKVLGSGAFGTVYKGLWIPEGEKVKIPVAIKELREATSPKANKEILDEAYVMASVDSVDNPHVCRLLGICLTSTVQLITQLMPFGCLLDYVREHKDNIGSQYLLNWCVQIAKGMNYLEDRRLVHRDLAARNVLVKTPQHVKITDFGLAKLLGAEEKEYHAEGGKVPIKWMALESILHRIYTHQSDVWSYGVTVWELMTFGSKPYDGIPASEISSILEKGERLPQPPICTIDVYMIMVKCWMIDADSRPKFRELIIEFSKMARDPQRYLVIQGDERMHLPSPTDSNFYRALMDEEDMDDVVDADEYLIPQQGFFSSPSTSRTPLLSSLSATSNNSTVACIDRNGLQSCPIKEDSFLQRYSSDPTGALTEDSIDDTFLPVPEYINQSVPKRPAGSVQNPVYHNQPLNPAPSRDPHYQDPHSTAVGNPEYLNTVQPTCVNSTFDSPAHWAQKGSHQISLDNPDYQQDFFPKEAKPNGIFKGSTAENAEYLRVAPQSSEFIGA
T3 sequence (P00533 with tags, fused parts or gaps INS769ASV): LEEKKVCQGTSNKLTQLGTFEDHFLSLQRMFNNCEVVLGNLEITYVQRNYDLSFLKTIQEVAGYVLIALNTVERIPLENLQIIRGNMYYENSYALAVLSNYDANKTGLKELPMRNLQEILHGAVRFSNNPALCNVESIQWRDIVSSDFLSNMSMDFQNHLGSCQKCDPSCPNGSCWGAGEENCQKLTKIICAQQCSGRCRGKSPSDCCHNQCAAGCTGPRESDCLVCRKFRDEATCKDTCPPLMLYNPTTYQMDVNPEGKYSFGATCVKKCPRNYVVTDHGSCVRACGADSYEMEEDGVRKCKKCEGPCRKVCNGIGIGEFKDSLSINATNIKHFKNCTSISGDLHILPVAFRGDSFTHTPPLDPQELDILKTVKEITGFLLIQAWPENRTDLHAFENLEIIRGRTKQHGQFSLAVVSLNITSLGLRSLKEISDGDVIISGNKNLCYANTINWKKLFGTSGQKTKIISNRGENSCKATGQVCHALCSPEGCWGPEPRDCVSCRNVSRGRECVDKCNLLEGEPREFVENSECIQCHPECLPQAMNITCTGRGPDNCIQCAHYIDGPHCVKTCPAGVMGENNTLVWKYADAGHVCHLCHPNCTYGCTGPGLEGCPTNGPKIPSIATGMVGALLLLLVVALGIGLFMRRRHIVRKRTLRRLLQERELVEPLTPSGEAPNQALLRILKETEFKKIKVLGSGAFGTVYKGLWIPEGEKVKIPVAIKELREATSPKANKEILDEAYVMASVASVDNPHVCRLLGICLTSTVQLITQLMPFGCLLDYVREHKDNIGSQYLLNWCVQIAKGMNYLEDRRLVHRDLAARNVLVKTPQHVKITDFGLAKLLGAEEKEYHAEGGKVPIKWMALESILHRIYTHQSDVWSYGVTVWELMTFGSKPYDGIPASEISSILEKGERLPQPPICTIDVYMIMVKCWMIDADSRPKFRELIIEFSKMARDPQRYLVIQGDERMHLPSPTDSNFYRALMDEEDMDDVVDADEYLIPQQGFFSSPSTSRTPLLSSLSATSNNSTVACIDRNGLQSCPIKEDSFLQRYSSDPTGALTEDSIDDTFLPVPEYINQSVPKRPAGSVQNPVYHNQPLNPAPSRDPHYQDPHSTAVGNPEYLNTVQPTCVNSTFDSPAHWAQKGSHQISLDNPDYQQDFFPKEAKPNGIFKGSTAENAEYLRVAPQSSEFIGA
T5 sequence (P00533 with tags, fused parts or gaps INS763FQEA): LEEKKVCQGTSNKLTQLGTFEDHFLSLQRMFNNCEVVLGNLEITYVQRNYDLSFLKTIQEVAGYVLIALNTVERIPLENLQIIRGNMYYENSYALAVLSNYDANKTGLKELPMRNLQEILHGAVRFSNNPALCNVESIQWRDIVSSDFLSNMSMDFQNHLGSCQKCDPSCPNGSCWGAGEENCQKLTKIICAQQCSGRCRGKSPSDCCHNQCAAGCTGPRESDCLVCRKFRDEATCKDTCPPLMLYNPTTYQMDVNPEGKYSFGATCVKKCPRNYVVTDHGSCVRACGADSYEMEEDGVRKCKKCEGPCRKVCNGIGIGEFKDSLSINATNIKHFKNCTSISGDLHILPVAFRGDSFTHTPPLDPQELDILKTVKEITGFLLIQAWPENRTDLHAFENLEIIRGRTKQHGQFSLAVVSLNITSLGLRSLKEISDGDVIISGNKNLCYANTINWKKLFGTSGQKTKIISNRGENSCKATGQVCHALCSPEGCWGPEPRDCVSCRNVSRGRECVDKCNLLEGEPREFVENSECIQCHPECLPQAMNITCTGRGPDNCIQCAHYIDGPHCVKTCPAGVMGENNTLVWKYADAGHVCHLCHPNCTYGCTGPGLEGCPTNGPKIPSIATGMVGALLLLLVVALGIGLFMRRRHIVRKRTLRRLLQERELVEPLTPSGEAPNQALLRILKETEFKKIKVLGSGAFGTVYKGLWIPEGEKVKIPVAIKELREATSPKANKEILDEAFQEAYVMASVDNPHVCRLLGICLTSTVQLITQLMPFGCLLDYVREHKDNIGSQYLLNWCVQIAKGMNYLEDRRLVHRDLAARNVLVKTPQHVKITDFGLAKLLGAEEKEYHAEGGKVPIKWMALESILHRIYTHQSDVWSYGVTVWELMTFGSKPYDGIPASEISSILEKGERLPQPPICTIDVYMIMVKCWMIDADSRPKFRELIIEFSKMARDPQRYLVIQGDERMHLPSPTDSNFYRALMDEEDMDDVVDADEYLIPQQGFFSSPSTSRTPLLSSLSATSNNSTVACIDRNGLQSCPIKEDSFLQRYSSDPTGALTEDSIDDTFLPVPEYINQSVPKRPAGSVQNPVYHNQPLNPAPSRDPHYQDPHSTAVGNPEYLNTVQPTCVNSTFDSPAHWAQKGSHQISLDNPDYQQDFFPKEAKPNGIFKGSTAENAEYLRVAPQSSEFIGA

Turning to `COc1c(F)cccc1Nc1c(-c2ccnc3ccc(N(C)C)nc23)[nH]c2c1C(=O)NCC2` [Compound 697, 2-[6-(dimethylamino)-1,5-naphthyridin-4-yl]-3-[(3-fluoro-2-methoxyphenyl)amino]-1H,5H,6H,7H-pyrrolo[3,2-c]pyridin-4-one], the IC50 in assay [1], in assay [2], in assay [3], in assay [4], in assay [5] and in assay [6] was below 100 nM in each case.
As for `COc1c(F)cccc1Nc1c(-c2nc(N)ncc2F)[nH]c2c1C(=O)NCC2` [Compound 688, 2-(2-amino-5-fluoropyrimidin-4-yl)-3-[(3-fluoro-2-methoxyphenyl)amino]-1H,5H,6H,7H-pyrrolo[3,2-c]pyridin-4-one], the IC50 in assay [1], in assay [2], in assay [3], in assay [4], in assay [5] and in assay [6] was above 1000 nM each time.
As for `COc1c(Cl)cccc1Nc1c(-c2ccnc(NC(C)C)n2)[nH]c2c1C(=O)NCC2` [compound 225], the half-maximal inhibitory concentration (IC50) is above 1000 nM in assay [1]; 100 to 1000 nM in assay [2]; 100 to 1000 nM in assay [3]; 100 to 1000 nM in assay [4]; above 1000 nM in assay [5]; 100 to 1000 nM in assay [6].
Turning to `COc1c(Cl)cccc1Nc1c(-c2ccnc(NC(=O)c3cccc(F)c3)n2)[nH]c2c1C(=O)NCC2` [compound 102], the IC50 in assay [1] was above 1000 nM; in assay [2], 100 to 1000 nM; in assay [3], 100 to 1000 nM; in assay [4], 100 to 1000 nM; in assay [5] it was 100 to 1000 nM; in assay [6] it was below 100 nM.
As to `COc1nn(C)cc1Nc1nccc(-c2[nH]c3c(c2Nc2cccc(Cl)c2OC)C(=O)NCC3)n1` [compound 219], the half-maximal inhibitory concentration (IC50) in assay [1], in assay [2], in assay [3], in assay [4], in assay [5] and in assay [6] was below 100 nM each time.
Turning to `COc1c(Cl)cccc1Nc1c(-c2nc(N)ncc2F)[nH]c2c1C(=O)NCC2` [compound 295], the 50% inhibitory concentration (IC50) in assay [1] was above 1000 nM; in assay [2], above 1000 nM; in assay [3] it was 100 to 1000 nM; in assay [4] it was above 1000 nM; in assay [5] it was 100 to 1000 nM; in assay [6], 100 to 1000 nM.
`COc1c(Cl)cccc1Nc1c(-c2ccnc(NCC(F)(F)F)n2)[nH]c2c1C(=O)NCC2` [Compound 701, 3-[(3-chloro-2-methoxyphenyl)amino]-2-[2-[(2,2,2-trifluoroethyl)amino]pyrimidin-4-yl]-1H,5H,6H,7H-pyrrolo[3,2-c]pyridin-4-one]: the IC50 was above 1000 nM in assay [1]; above 1000 nM in assay [2]; above 1000 nM in assay [3]; above 1000 nM in assay [4]; above 1000 nM in assay [5]; 100 to 1000 nM in assay [6].
Consider `Nc1nccc(-c2[nH]c3c(c2Nc2cccc(C(F)(F)F)c2)C(=O)NCC3)n1` [compound 199], for which the half-maximal inhibitory concentration (IC50) in assay [1] was above 1000 nM; in assay [2] it was 100 to 1000 nM; in assay [3], above 1000 nM; in assay [4], above 1000 nM; in assay [5], 100 to 1000 nM; in assay [6], 100 to 1000 nM.
For `COc1c(F)cccc1Nc1c(-c2snc3cccnc23)[nH]c2c1C(=O)NCC2` [Compound 156, 3-((3-fluoro-2-methoxyphenyl)amino)-2-(isothiazolo[4,3-b]pyridin-3-yl)-1,5,6,7-tetrahydro-4H-pyrrolo[3,2-c]pyridin-4-one], the IC50 in assay [1], in assay [2], in assay [3], in assay [4], in assay [5] and in assay [6] was above 1000 nM in each case.
As to `COc1c(F)cccc1Nc1c(-c2ccnc3ccc(OC4CC4)nc23)[nH]c2c1C(=O)NCC2` [Compound 696, 2-(6-cyclopropoxy-1,5-naphthyridin-4-yl)-3-[(3-fluoro-2-methoxyphenyl)amino]-1H,5H,6H,7H-pyrrolo[3,2-c]pyridin-4-one; trifluoroacetic acid], the IC50 in assay [1], in assay [2], in assay [3], in assay [4], in assay [5] and in assay [6] was below 100 nM in each case.
Take `COc1c(Cl)cccc1Nc1c(-c2ccnc(NCCN(C)C)n2)[nH]c2c1C(=O)NCC2` [Compound 707, 3-((3-chloro-2-methoxyphenyl)amino)-2-(2-((2-(dimethylamino)ethyl)amino)pyrimidin-4-yl)-1,5,6,7-tetrahydro-4H-pyrrolo[3,2-c]pyridin-4-one]: the IC50 in assay [1], in assay [2], in assay [3], in assay [4], in assay [5] and in assay [6] was above 1000 nM throughout.
`COc1c(Cl)cccc1Nc1c(-c2ccnc(NC[C@@H]3CCCO3)n2)[nH]c2c1C(=O)NCC2` [compound 722, 3-[(3-chloro-2-methoxyphenyl)amino]-2-(2-[[(2S)-oxolan-2-ylmethyl]amino]pyrimidin-4-yl)-1H,5H,6H,7H-pyrrolo[3,2-c]pyridin-4-one]: the half-maximal inhibitory concentration (IC50) in assay [1] was above 1000 nM; in assay [2], above 1000 nM; in assay [3], above 1000 nM; in assay [4], above 1000 nM; in assay [5], above 1000 nM; in assay [6], 100 to 1000 nM.
As to `COc1c(F)cccc1Nc1c(-c2ccnc3ccc(NC(C)(C)C)nc23)[nH]c2c1C(=O)NCC2` [Compound 694, 2-[6-(tert-butylamino)-1,5-naphthyridin-4-yl]-3-[(3-fluoro-2-methoxyphenyl)amino]-1H,5H,6H,7H-pyrrolo[3,2-c]pyridin-4-one], the half-inhibitory concentration (IC50) in assay [1], in assay [2], in assay [3], in assay [4], in assay [5] and in assay [6] was below 100 nM each time.
On to `COc1c(Cl)cccc1Nc1c(-c2ncnc3[nH]ccc23)[nH]c2c1C(=O)NCC2` [compound 289], for which the IC50 in assay [1], in assay [2], in assay [3], in assay [4], in assay [5] and in assay [6] was above 1000 nM throughout.
Turning to `COc1c(Cl)cccc1Nc1c(-c2ccnc(NCC(F)F)n2)[nH]c2c1C(=O)NCC2` [Compound 702, 3-[(3-chloro-2-methoxyphenyl)amino]-2-[2-[(2,2-difluoroethyl)amino]pyrimidin-4-yl]-1H,5H,6H,7H-pyrrolo[3,2-c]pyridin-4-one], the IC50 was above 1000 nM in assay [1]; 100 to 1000 nM in assay [2]; 100 to 1000 nM in assay [3]; 100 to 1000 nM in assay [4]; 100 to 1000 nM in assay [5]; 100 to 1000 nM in assay [6].
Take `COc1c(Cl)cccc1Nc1c(-c2ccnc(NCCF)n2)[nH]c2c1C(=O)NCC2` [compound 710, 3-[(3-chloro-2-methoxyphenyl)amino]-2-[2-[(2-fluoroethyl)amino]pyrimidin-4-yl]-1H,5H,6H,7H-pyrrolo[3,2-c]pyridin-4-one]: the half-maximal inhibitory concentration (IC50) in assay [1] is above 1000 nM; in assay [2], 100 to 1000 nM; in assay [3] it was 100 to 1000 nM; in assay [4] it was 100 to 1000 nM; in assay [5], 100 to 1000 nM; in assay [6], below 100 nM.
As for `COc1c(Cl)cccc1Nc1c(-c2ccnc(NC3CC3)n2)[nH]c2c1C(=O)NCC2` [compound 112], the IC50 in assay [1] is above 1000 nM; in assay [2] it was above 1000 nM; in assay [3], 100 to 1000 nM; in assay [4], 100 to 1000 nM; in assay [5], 100 to 1000 nM; in assay [6], below 100 nM.
